# Reference: PMC12021911, “Comparative evaluation of antimicrobial peptides: effect on formation, metabolic activity and viability of Klebsiella pneumoniae biofilms” (Frontiers in Microbiology, 2025)
# Read-outs that look alike come from different tables or passages of the source. Bridge positions count the residues as written; N and C are the ends. Square brackets hold non-standard residues; d marks the D form. Peptide text beside a SMILES is read from it. * marks the point of attachment. X1 = CC[C@H](C)CCCCC(=O)*; Dab = NCC[C@H](N)C(=O)O
# What was measured:
# Type in all cases: cell-based, Klebsiella pneumoniae
# K. pneumoniae 17349 [1] = assay: microbe, parasite or virus in culture
# Description: (§1) Three different strains of K. pneumoniae were investigated in this study which were originally isolated from a human, a pig and a dog (Table 2) and characterized in previous studies ([Krieger et al., 2021]; [Krieger et al., 2022]). Minimum inhibitory concentration (MIC) values were determined according to EUCAST guidelines by microdilution test and are shown in Supplementary Table S1.
# (§2) Table S1 Minimum inhibitory concentration (MIC) values of the three K. pneumoniae strains,
# (§3) determined according to EUCAST guidelines by microdilution test.
# (§4) MIC [µg/mL] of indicated antibiotics
# K. pneumoniae IMT40061 [2] = assay: microbe, parasite or virus in culture; details: EUCAST guidelines, microdilution test
# Description: as §1, §2, §3, §4
# [3] = system: K. pneumoniae 42KC-108224-1; assay: microbe, parasite or virus in culture
# Description: as §1, §2, §3, §4
# K. pneumoniae IMT40061 [4] = assay: crystal violet assay, biofilm formation upon AMP treatment; details: 16 μg/mL; 22 h, 37°C, 50% BHI; mean, n ≥ 3
# Description: (§5) To quantify biofilm formation, the crystal violet assay was done as described previously ([Sager et al., 2015]). Specifically, bacteria were grown in 10 mL BHI broth for 18 h at 37°C on a shaking platform (120 rpm). Subsequently 100 μL of a 1:100 dilution of this overnight culture in BHI was transferred to 96-well plates and incubated for 24 h at 37°C. Wells with BHI broth only were used as blank. Five replicates were investigated per strain. After incubation the suspension was discarded, plates were washed three times with tap water and air-dried. Subsequently, 100 μL of 1% crystal violet (T123.1, Th. Geyer GmbH & Co. KG, Renningen, Germany) in distilled water was added to each well and incubated for 15 min at room temperature before rinsing the plates four times with tap water and air-drying them again. One hundred μL of 99% ethanol were added to each well for 15 min at room temperature to dissolve the remaining crystal violet. Subsequently, the optical density at 540 nm (OD540) was measured using the BioTek Synergy H1 microplate reader to quantify biofilm mass remaining in the wells. OD values of the blank were subtracted from all the samples. Each experiment was conducted three times.
# (§6) To determine the effect of the AMPs on biofilm formation of K. pneumoniae, a standardized bacterial suspension and serial dilutions of antimicrobial agents were incubated together as conducted for determination of planktonic growth. After incubation the crystal violet assay was performed as described above. The percentage of biofilm formation was calculated based on the growth control. The experiment was conducted at least three times.
# [5] = system: K. pneumoniae 42KC-108224-1; assay: as above; details: for biofilm mass (crystal violet), percentage of the growth control: 16 μg/mL, 22 h, 37°C, 50% BHI, mean, n ≥ 3
# Description: as §5, §6
# [6] = system: K. pneumoniae 42KC-108224-1; assay: fluorescence assay on mature biofilms (SYTO 9 / propidium iodide); details: for viable biofilm mass (SYTO™ 9): 24 h treatment of mature biofilm, strongest reduction, concentration not given
# Description: (§7) The proportion of living and dead bacteria was determined using the fluorescence assay FilmTracer™ LIVE/DEAD biofilm viability kit (L10316, Life Technologies GmbH, Darmstadt, Germany). A bacterial count of 2 × 10^7 CFU/mL was inoculated in 50% BHI broth, 100 μL were added to a 96-well plate in duplicate and plates were incubated for 22 h at 37°C. Wells containing only BHI broth were used as blank. After incubation, the supernatant was discarded and plates were washed three times with sterile PBS. […] After incubation for 24 h at 37°C and washing three times with sterile PBS, 50 μL filter-sterilized water containing 0.15 μL each of SYTO™ 9 stain and propidium iodide stain was added to each well. Plates were incubated for 20 min at room temperature in the dark. The staining solution was discarded and the plates were washed three times with sterile PBS. The fluorescence intensity of the SYTO™ 9 stain (λex = 470 nm, λem = 500 nm) and the propidium iodide stain (λex = 490 nm, λem = 635 nm) were measured on a BioTek Synergy H1 microplate reader and corrected for the blank values. The percentage of fluorescence intensity was calculated based on the negative control. The SYTO™ 9/propidium iodide ratio was calculated. The experiment was conducted at least three times.
# K. pneumoniae IMT40061 [7] = assay: as above; details: 24 h treatment of mature biofilm; at very high concentrations
# Description: as §7
# K. pneumoniae 17349 [8] = assay: crystal violet assay, biofilm formation upon AMP treatment; details: 22 h, 37°C, 50% BHI, mean, n ≥ 3
# Description: as §5, §6
# K. pneumoniae 17349 [9] = assay: resazurin assay, metabolic activity of biofilm; details: 16 μg/mL; 22 h co-incubation, 37°C, 50% BHI; n ≥ 3
# Description: Biofilm viability was quantified using the resazurin assay as previously described ([Fontoura et al., 2023]) with minor modifications. A standardized bacterial suspension and serial dilutions of antimicrobial agents were incubated together as conducted for determination of planktonic growth and biofilm formation. After incubation, the bacterial suspension was discarded and plates were washed three times with sterile PBS. One hundred microliters of sterile PBS containing 2 μL of resazurin (6.75 mg/mL, in sterile PBS; R7017-1G, Merck KGaA, Darmstadt, Germany) were added per well. After an incubation of 3–5 h at 37°C fluorescence intensity was measured with an excitation wavelength (λex) of 528 nm and an emission wavelength (λem) of 645 nm by BioTek Synergy H1 microplate reader. Measured values of the blank were subtracted from all the samples. The percentage of metabolic activity was calculated based on the growth control. The experiment was conducted at least three times.
# [10] = system: all three K. pneumoniae strains; assay: crystal violet assay, biofilm formation, statements on all three strains; details: all three strains; concentration not given
# Description: as §5, §6
# [11] = Klebsiella pneumoniae, 17349, EUCAST guidelines, microdilution test, read-out: MIC
# [12] = Klebsiella pneumoniae, IMT40061, read-out: MIC
# [13] = Klebsiella pneumoniae, 42KC1082241, EUCAST guidelines, microdilution test, read-out: MIC
# [14] = EUCAST guidelines, microdilution test
compound,measurement,setting,value
CC(C)(O/N=C(\C(=O)N[C@@H]1C(=O)N2C(C(=O)[O-])=C(C[n+]3ccccc3)CS[C@H]12)c1csc(N)n1)C(=O)O [Ceftazidime],MIC,K. pneumoniae 17349 [1]; [11],< 0.25 µg/mL
same,MIC,K. pneumoniae IMT40061 [2]; [12],> 32 µg/mL
same,MIC,[3]; [13],< 0.25 µg/mL
NCC[C@H](O)C(=O)N[C@@H]1C[C@H](N)[C@@H](O[C@H]2O[C@H](CN)[C@@H](O)[C@H](O)[C@H]2O)[C@H](O)[C@H]1O[C@H]1O[C@H](CO)[C@@H](O)[C@H](N)[C@H]1O [Amikacin],MIC,K. pneumoniae 17349 [1]; [11],< 0.5 µg/mL
same,MIC,K. pneumoniae IMT40061 [2]; [12],4 µg/mL
same,MIC,[3]; [13],< 0.5 µg/mL
C[C@H]1COc2c(N3CCN(C)CC3)c(F)cc3c(=O)c(C(=O)O)cn1c23 [Levofloxacin],MIC,"K. pneumoniae 17349 [1]; Klebsiella pneumoniae, 17349",< 0.0625 µg/mL
same,MIC,K. pneumoniae IMT40061 [2]; [12],> 8 µg/mL
same,MIC,"[3]; Klebsiella pneumoniae, 42KC1082241",< 0.0625 µg/mL
"KRFRIRVRV-NH2 [compound 1037, Synthetic antimicrobial peptide]","biofilm mass (crystal violet), percentage of the growth control",K. pneumoniae IMT40061 [4],67%
same,"biofilm mass (crystal violet), percentage of the growth control",[5],53%
same,viable biofilm mass (SYTO™ 9),[6],43%
CO/N=C(\C(=O)N[C@@H]1C(=O)N2C(C(=O)O)=C(COC(C)=O)CS[C@H]12)c1csc(N)n1 [Cefotaxime],MIC,K. pneumoniae 17349 [1]; [11],< 0.0625 µg/mL
same,MIC,K. pneumoniae IMT40061 [2]; [12],> 8 µg/mL
same,MIC,[3]; [13],< 0.0625 µg/mL
CO/N=C(\C(=O)N[C@@H]1C(=O)N2C(C(=O)O)=C(COC(N)=O)CS[C@H]12)c1ccco1 [Cefuroxime],MIC,K. pneumoniae 17349 [1]; [11],1 µg/mL
same,MIC,K. pneumoniae IMT40061 [2]; [12],> 32 µg/mL
same,MIC,[3]; [13],2 µg/mL
"VDKPPYLPRPRPPRrIYNr-NH2 [Onc112, Insect-derived proline-rich AMP, derivate of Oncopeltus antibacterial peptide 4]","biofilm mass (crystal violet), percentage of the growth control",[5],26%
same,biofilm formation inhibited to,[5]; concentration not given,26%
same,viable biofilm mass (SYTO™ 9),[6],55%
C[C@H]1[C@H](NC(=O)/C(=N\OC(C)(C)C(=O)O)c2csc(N)n2)C(=O)N1S(=O)(=O)O [Aztreonam],MIC,K. pneumoniae 17349 [1]; [11],< 0.25 µg/mL
same,MIC,K. pneumoniae IMT40061 [2]; [12],> 16 µg/mL
same,MIC,[3]; [13],< 0.25 µg/mL
C[C@H]1c2cccc(O)c2C(=O)C2=C(O)[C@]3(O)C(=O)C(C(N)=O)=C(O)[C@@H](N(C)C)[C@@H]3[C@@H](O)[C@@H]21 [Doxycycline],MIC,K. pneumoniae 17349 [1]; [11],0.5 µg/mL
same,MIC,K. pneumoniae IMT40061 [2]; [12],4 µg/mL
same,MIC,[3]; [13],1 µg/mL
Piperacillin/Tazobactam,MIC,K. pneumoniae 17349 [1]; [14],1/4
same,MIC,K. pneumoniae IMT40061 [2],> 64/4
same,MIC,[3]; [14],1/4
CC[C@H](C)CCCCC(=O)N[C@@H](CCN)C(=O)N[C@H](C(=O)N[C@@H](CCN)C(=O)N[C@H]1CCNC(=O)[C@H]([C@@H](C)O)NC(=O)[C@H](CCN)NC(=O)[C@H](CCN)NC(=O)[C@H](CC(C)C)NC(=O)[C@@H](CC(C)C)NC(=O)[C@H](CCN)NC1=O)[C@@H](C)O [Colistin] (X1-[Dab]T[Dab][Dab][Dab][dL]L[Dab][Dab]T; lactam 4-C (inferred); N-terminus assumed),MIC,K. pneumoniae 17349 [1]; [14],0.25 µg/mL
same,MIC,K. pneumoniae IMT40061 [2],< 0.0625 µg/mL
same,MIC,[3]; [14],0.25 µg/mL
CC[C@H]1OC(=O)[C@H](C)[C@@H](O[C@H]2C[C@@](C)(OC)[C@@H](O)[C@H](C)O2)[C@H](C)[C@@H](O[C@@H]2O[C@H](C)C[C@H](N(C)C)[C@H]2O)[C@](C)(O)C[C@@H](C)C(=O)[C@H](C)[C@@H](O)[C@]1(C)O [Erythromycin],living biofilm mass (SYTO™ 9),K. pneumoniae IMT40061 [7],69%
same,fluorescence intensity of propidium iodide in percent (dead cells),"[6]; 64 μg/mL in PBS, 24 h on 22 h-old biofilm, mean, n ≥ 3",64%
"LLGDFFRKSKEKIGKEFKRIVQRIKDFLRNLVPRTES-OH [LL-37, Human cathelicidin, purchased from GENAXXON bioscience GmbH]","biofilm mass (crystal violet), percentage of the growth control",K. pneumoniae 17349 [8]; 0.5 μg/mL,140%
same,"biofilm mass (crystal violet), percentage of the growth control",K. pneumoniae 17349 [8]; 16 μg/mL,13%
same,"metabolic activity of the biofilm (resazurin), percentage of the growth control",K. pneumoniae 17349 [9],30%
same,"biofilm mass, % of the untreated control",[10],less than 40%
